Format in all cases: cell-based
For one experiment, the target named is T1, human TLR9 (Homo sapiens, UniProt Q9NR96).
T1 construct: host or cells: HEK-Blue cells
T1 sequence (Q9NR96 26-1032): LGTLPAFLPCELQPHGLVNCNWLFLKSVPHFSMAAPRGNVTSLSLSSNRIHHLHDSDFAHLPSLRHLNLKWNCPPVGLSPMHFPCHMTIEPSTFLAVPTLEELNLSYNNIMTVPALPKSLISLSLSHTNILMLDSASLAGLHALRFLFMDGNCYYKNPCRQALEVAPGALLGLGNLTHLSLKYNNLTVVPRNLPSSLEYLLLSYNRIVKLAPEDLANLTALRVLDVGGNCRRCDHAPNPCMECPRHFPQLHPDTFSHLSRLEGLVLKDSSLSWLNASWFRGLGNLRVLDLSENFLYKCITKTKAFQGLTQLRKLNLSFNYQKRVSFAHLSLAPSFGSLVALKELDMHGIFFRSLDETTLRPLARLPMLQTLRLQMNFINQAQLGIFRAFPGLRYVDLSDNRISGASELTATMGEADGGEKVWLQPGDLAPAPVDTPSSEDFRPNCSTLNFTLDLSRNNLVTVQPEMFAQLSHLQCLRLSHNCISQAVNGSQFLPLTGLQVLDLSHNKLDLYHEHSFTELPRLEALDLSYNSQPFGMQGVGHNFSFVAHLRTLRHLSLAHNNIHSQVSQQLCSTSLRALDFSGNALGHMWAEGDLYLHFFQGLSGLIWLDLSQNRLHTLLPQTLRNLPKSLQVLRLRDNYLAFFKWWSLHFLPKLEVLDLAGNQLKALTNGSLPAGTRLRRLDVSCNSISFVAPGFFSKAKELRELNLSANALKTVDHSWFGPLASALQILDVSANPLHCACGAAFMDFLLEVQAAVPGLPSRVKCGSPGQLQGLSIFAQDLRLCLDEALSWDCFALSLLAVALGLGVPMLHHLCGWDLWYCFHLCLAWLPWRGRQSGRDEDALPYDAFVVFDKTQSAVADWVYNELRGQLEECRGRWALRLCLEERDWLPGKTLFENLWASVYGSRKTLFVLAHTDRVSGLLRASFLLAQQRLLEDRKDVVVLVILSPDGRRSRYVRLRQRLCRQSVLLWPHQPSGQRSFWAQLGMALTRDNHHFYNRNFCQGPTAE
In words: TLR9 inhibition reporter assay (HEK-Blue cells, SEAP reporter, ODN2006 stimulation). The following applies: HEK-Blue cells overexpressing human TLR9, SEAP reporter, ODN2006 5 nM. In short, it runs like this: (§1)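 Dose range 0.05 nM–50 μM; 30 min preincubation, RT. Agonists: TLR7 gardiquimod 7.5 μM, TLR8 R848 15.9 μM, TLR9 ODN2006 5 nM. 22 h, 37 °C, 5% CO2. SEAP (IFN-β minimal promoter with NF-κB/AP-1 sites) via colorimetric detection medium; % inhibition vs agonist+DMSO and reference-inhibitor wells.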

The target in a further experiment is T2, human TLR7 (Homo sapiens, UniProt Q9NYK1).
T2 construct: host or cells: HEK-Blue cells
T2 sequence (Q9NYK1 27-1049): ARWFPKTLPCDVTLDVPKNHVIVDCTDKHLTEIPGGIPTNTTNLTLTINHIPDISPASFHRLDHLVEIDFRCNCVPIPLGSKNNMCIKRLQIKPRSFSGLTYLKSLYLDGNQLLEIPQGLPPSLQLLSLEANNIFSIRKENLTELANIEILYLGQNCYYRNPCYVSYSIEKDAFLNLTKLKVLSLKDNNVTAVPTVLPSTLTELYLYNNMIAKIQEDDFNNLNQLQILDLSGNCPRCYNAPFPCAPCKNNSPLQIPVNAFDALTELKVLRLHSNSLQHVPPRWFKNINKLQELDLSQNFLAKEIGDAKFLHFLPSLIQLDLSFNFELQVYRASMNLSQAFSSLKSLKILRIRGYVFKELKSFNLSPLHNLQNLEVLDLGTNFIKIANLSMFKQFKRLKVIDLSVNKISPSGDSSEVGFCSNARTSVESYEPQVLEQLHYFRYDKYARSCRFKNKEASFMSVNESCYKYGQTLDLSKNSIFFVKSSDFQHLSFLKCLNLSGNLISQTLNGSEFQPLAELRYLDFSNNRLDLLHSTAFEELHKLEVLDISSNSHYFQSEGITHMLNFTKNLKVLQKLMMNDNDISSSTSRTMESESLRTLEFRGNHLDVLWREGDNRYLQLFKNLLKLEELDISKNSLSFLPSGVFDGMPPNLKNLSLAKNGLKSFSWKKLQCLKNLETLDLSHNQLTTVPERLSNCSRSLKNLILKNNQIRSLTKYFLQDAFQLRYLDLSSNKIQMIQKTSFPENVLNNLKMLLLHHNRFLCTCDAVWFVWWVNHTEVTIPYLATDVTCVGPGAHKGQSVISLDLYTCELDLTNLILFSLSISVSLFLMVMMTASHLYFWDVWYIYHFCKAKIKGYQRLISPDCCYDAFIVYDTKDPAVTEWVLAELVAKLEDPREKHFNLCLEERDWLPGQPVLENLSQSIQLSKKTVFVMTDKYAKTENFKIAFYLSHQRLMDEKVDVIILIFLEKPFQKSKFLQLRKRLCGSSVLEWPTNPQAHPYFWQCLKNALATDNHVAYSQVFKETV
The experiment is described as follows: TLR7 inhibition reporter assay (HEK-Blue cells, SEAP reporter, gardiquimod stimulation). As to conditions: HEK-Blue cells overexpressing human TLR7, SEAP reporter, gardiquimod 7.5 μM. In short, it runs like this: as §1
(In general: Reporter assays use an easily measured gene product as a stand-in for the process of interest.)

The target in a further experiment is T3, human TLR8 (Homo sapiens, UniProt Q9NR97).
T3 construct: host or cells: HEK-Blue cells
T3 sequence (Q9NR97 27-1041): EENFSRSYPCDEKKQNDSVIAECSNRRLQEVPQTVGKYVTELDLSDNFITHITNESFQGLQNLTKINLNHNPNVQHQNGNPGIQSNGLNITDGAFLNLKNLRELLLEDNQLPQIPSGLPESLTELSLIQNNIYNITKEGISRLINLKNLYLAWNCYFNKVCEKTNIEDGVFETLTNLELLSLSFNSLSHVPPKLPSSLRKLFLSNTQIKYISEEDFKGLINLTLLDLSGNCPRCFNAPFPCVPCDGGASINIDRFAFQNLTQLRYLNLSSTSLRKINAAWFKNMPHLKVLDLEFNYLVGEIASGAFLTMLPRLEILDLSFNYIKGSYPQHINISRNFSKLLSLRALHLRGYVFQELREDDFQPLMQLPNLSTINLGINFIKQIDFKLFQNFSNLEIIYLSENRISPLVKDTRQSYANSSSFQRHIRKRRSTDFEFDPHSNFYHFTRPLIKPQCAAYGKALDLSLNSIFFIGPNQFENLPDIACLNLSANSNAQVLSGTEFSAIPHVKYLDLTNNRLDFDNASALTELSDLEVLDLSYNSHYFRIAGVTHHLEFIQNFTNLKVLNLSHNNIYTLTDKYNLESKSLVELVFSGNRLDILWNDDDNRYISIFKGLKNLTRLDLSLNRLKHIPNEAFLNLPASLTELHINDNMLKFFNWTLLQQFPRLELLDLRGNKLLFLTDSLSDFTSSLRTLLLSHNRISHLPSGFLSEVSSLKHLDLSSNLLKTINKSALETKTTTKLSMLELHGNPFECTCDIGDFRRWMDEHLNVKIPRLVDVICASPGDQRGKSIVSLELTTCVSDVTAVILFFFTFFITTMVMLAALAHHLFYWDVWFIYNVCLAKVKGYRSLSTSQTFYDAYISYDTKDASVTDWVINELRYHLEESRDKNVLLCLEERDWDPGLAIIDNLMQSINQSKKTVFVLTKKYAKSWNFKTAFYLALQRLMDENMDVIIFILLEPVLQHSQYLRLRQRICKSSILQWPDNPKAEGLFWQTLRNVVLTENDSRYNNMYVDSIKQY
The experiment is described as follows: TLR8 inhibition reporter assay (HEK-Blue cells, SEAP reporter, R848 stimulation). The following applies: HEK-Blue cells overexpressing human TLR8, SEAP reporter, R848 15.9 μM. In short, it runs like this: as §1

For orientation: IC50 means the midpoint of a concentration-inhibition curve.

`Cc1cc(-c2[nH]c3ccc([C@@H]4C[C@H]4C(=O)N(C)C4CC5CCN4CC5)cc3c2C(C)C)ccn1` (stereo partly drawn) [Example 463]: the values for the 50% inhibitory concentration (IC50) against human TLR9, against human TLR7 and against human TLR8 were 406 nM, 35 nM and 15 nM, respectively.
For the compound `Cc1cc(-c2[nH]c3ccc(C4CCC(C(=O)N5CCN(C)CC5)CC4)cc3c2C(C)C)cn2ncnc12` (single isomer, unassigned) [Example 156], the values for the IC50 at human TLR9, against human TLR7 and on human TLR8 were 3640 nM, 0.82 nM and 6.7 nM, respectively.
For `Cc1cc(-c2[nH]c3ccc(C4CN(C)CCO4)cc3c2C(C)C)cn2ncnc12` (stereo not drawn) [Example 296] the same measures were 8260 nM, 3 nM and 6.3 nM.
On the same counts, the results for `Cc1c(-c2[nH]c3ccc(C4CC(NC5COC5)C4)cc3c2C(C)C)cn2ncnc2c1C` (stereo not drawn) [Example 575] are 22300 nM, 4 nM and 1.1 nM.
For `Cc1c(-c2[nH]c3ccc(C4CN(C(C)C)C4)cc3c2C(C)C)cn2ncnc2c1C` [Example 555], the IC50 on human TLR9 stood at 7730 nM; against human TLR7, 9 nM; on human TLR8, 10 nM.
On the same counts, the results for `Cc1c(-c2[nH]c3ccc(CC4CCCN4CCS(C)(=O)=O)cc3c2C(C)C)cn2cnnc2c1C` (stereo not drawn) [Example 428] are 16200 nM, 49 nM and 15 nM.
On the same counts, the results for `Cc1c(-c2[nH]c3ccc(C4CCCNC4)cc3c2C(C)C)ccc2ncnn12` (stereo not drawn) [Example 188] are 7050 nM, 161 nM and 66 nM.
For `Cc1cc(-c2[nH]c3ccc(C4CCC(N5CCOCC5)CC4)cc3c2C(C)C)cc(C)n1` (stereo not drawn) [Example 54] the same measures were 618 nM, 2 nM and 3.3 nM.
For `Cc1c(-c2[nH]c3ccc(C4CCC(NCC(=O)N(C)C)CC4)cc3c2C(C)C)cn(C)c(=O)c1C` (stereo not drawn) [Example 480], the half-inhibitory concentration (IC50) is 6200 nM at human TLR9, 20 nM on human TLR7 and 6.3 nM on human TLR8.
On the same counts, the results for `COc1cc(-c2[nH]c3ccc(C4CCC(NC(C)=O)CC4)cc3c2C(C)C)cn2ncnc12` (single isomer, unassigned) [Example 115, N-(4-(3-isopropyl-2-(8-methoxy-[1,2,4]triazolo[1,5-a]pyridin-6-yl)-1H-indol-5-yl)cyclohexyl)acetamide] are 16100 nM, 1 nM and 13 nM.
On the same counts, the results for `Cc1c(-c2[nH]c3ccc(C4CCC(NCC(C)(C)O)CC4)cc3c2C(C)C)cn2ncnc2c1C` (stereo not drawn) [Example 106] are 1390 nM, 0.67 nM and 0.28 nM.
For `Cc1c(-c2[nH]c3ccc(C4CCC(N(C)C)CC4)cc3c2C(C)C)cn(C)c(=O)c1C` (stereo not drawn) [Example 475] the same measures were 10600 nM, 26 nM and 28 nM.
On to `CNCC(=O)N1CCOC(c2ccc3[nH]c(-c4cn5ncnc5c(C)c4C)c(C(C)C)c3c2)C1` (stereo not drawn) [Example 340], for which the IC50 on human TLR9 was 4830 nM; on human TLR7, 2 nM; against human TLR8, 5.1 nM.
For `Cc1c(-c2[nH]c3ccc(C4CCC(N(C)C5COC5)CC4)cc3c2C(C)C)cn2cnnc2c1C` (stereo not drawn) [Example 528] the same measures were 5600 nM, 2 nM and 16 nM.
For `COc1cc(-c2[nH]c3ccc(C4CCC(N(C)C5CC5)CC4)cc3c2C(C)C)cn2ncnc12` (stereo not drawn) [Example 12] the same measures were 2130 nM, 0.7 nM and 1.6 nM.
For `COc1cc(-c2[nH]c3ccc(C4CCC(NC(=O)CN5CC6(COC6)C5)CC4)cc3c2C(C)C)cn2ncnc12` (stereo not drawn) [Example 138] the same measures were 4440 nM, 0.41 nM and 2.5 nM.
On to `COc1cc(-c2[nH]c3ccc(C4CCCN(CC(N)=O)C4)cc3c2C(C)C)cn2ncnc12` (stereo not drawn) [Example 229], for which the results for the IC50 at human TLR9, on human TLR7 and against human TLR8 were 6380 nM, 4 nM and 8.1 nM, respectively.
For `Cc1cc(-c2[nH]c3ccc(C4CN(CCS(C)(=O)=O)C4)cc3c2C(C)C)cn2ncnc12` [Example 264], the figures for the IC50 on human TLR9, against human TLR7 and against human TLR8 were 8170 nM, 3 nM and 19 nM, respectively.
For the compound `COc1cc(-c2[nH]c3ccc(C4CCC(NC(=O)CN(C)C)CC4)cc3c2C(C)C)cn2ncnc12` (stereo not drawn) [Example 122], the IC50 at human TLR9 turned out to be 8700 nM; at human TLR7 it was 0.24 nM; against human TLR8, 2.4 nM.
On the same counts, the results for `COc1cc(-c2[nH]c3ccc(C4CCC(N5CC(O)C5)CC4)cc3c2C(C)C)cn2ncnc12` (single isomer, unassigned) [Example 22] are 1200 nM, 0.85 nM and 3.9 nM.
For the compound `Cc1cc(-c2[nH]c3ccc([C@H]4C[C@H]4C(=O)NC4CCC5CNCC54)cc3c2C(C)C)ccn1` (stereo partly drawn) [Example 457], the half-inhibitory concentration (IC50) on human TLR9 is 646 nM; on human TLR7, 189 nM; against human TLR8, 50 nM.
